Results from ChEMBL document CHEMBL1821652, “QSAR models for predicting enzymatic hydrolysis of new chemical entities in 'soft-drug' design” (Bioorg Med Chem, 2009).

Test: Half life in human plasma
Assay type: ADME, cell-free

| SMILES | half-life [min] |
| --- | --- |
| CCOC(=O)CNC(=O)OCN(c1ccc([N+](=O)[O-])cc1Oc1ccccc1)S(C)(=O)=O | 954 |
| C[C@H](NC(=O)[C@H](N)CC(=O)OCc1ccccc1)C(=O)O | 211 |
| CC(C)OC(=O)[C@@H](N)Cc1ccc(O)c(O)c1 | 238 |
| Cc1cn([C@H]2C=C[C@@H](COC(=O)CN3CCN(c4cc5c(cc4F)c(=O)c(C(=O)O)cn5C4CC4)CC3)O2)c(=O)[nH]c1=O | 240 |
| Cc1cc(C)nc(N(COC(=O)C(C)(C)C)S(=O)(=O)c2ccc(N)cc2)n1 | 244 |
| C[C@H](NC(=O)[C@H](N)CC(=O)OCc1ccc(F)cc1)C(=O)O | 260 |
| CCOC(=O)[C@H]1O[C@@H](Oc2cc3oc(-c4ccc(O)cc4)cc(=O)c3c(O)c2O)[C@H](O)[C@@H](O)[C@@H]1O | 273 |
| CCN(CC)CC(=O)N(COC(=O)C(C)(C)C)c1c(C)cccc1C | 280 |
| COC(=O)[C@@H](C)c1ccc2cc(OC)ccc2c1 | 316 |
| CCC(=O)O[C@]1(C(=O)OCCl)CC[C@H]2[C@@H]3CCC4=CC(=O)CC[C@]4(C)[C@H]3[C@@H](O)C[C@@]21C | 318 |
| CC(C)C[C@H](NC(=O)[C@H](Cc1ccccc1)NC(=O)CNC(=O)CN1C(=O)[C@H](Cc2ccc(O)cc2)NC12CCCC2)C(=O)O | 334 |
| CCCC(CCC)C(=O)OCN(C)C(=O)c1ccccc1 | 384 |
| CC(C)(C)C(=O)Oc1ccc2c3c1O[C@H]1C(=O)CC[C@@]4(O)[C@@H](C2)N(CC2CC2)CC[C@]314 | 562 |
| CC(C)C[C@H](NC(=O)[C@H](Cc1ccccc1)NC(=O)CNC(=O)CN1C(=O)[C@H](Cc2ccc(O)cc2)NC12CCCCC2)C(=O)O | 730 |
| Cc1ncc([N+](=O)[O-])n1CCOC(=O)c1ccccc1C(=O)OCCn1c([N+](=O)[O-])cnc1C | 743 |
| COC(=O)O[C@]1(C(=O)OCCl)CC[C@H]2[C@@H]3CCC4=CC(=O)CC[C@]4(C)[C@H]3[C@@H](O)C[C@@]21C | 960 |

| SMILES | half-life [min] |
| --- | --- |
| CC(C)C[C@H](NC(=O)[C@H](Cc1ccccc1)NC(=O)CNC(=O)CN1C(=O)[C@H](Cc2ccc(O)cc2)NC12CCC(C)CC2)C(=O)O (some centres not stated) | 1130 |
| CCCC(CCC)C(=O)OCN(CC(=O)OCC)C(=O)c1ccccc1 | 1320 |
| CSCOC(=O)[C@@]1(O)CC[C@H]2[C@@H]3CCC4=CC(=O)C=C[C@]4(C)[C@H]3[C@@H](O)C[C@@]21C | 2100 |
| CSCOC(=O)[C@@]1(O)CC[C@H]2[C@@H]3CCC4=CC(=O)CC[C@]4(C)[C@H]3[C@@H](O)C[C@@]21C | 2280 |
| CCC(CC)C(=O)Oc1ccc2c3c1O[C@H]1C(=O)CC[C@@]4(O)[C@@H](C2)N(CC2CC2)CC[C@]314 | 2680 |
| CCOC(=O)CN(C)C(=O)OCN(c1ccc([N+](=O)[O-])cc1Oc1ccccc1)S(C)(=O)=O | 2950 |
| COc1ccc2c(c1)c(CC(=O)NCCOCCOCCO)c(C)n2C(=O)c1ccc(Cl)cc1 | 4440 |
| CC(C)(C)OC(=O)Oc1ccc2c3c1O[C@H]1C(=O)CC[C@@]4(O)[C@@H](C2)N(CC2CC2)CC[C@]314 | > 1440 |
| CCN(CC)C(=O)COC(=O)[C@H](C)c1ccc(CC(C)C)cc1 | 1 |
| C[C@@H](C(=O)OCC(=O)N(C)C)c1ccc(-c2ccccc2)c(F)c1 | 1.1 |
| CCN(CC)C(=O)COC(=O)[C@@H](C)c1ccc(CC(C)C)cc1 | 1.4 |
| CC(C)Cc1ccc([C@@H](C)C(=O)OCC(=O)N(C)C)cc1 | 1.5 |
| CCN(CC)C(=O)COC(=O)[C@H](C)c1ccc(-c2ccccc2)c(F)c1 | 1.5 |
| CCN(CC)C(=O)COC(=O)[C@@H](C)c1ccc(-c2ccccc2)c(F)c1 | 2.6 |
| CC1(C)O[C@@H]2C[C@H]3[C@@H]4C[C@H](F)C5=CC(=O)C=C[C@]5(C)[C@@]4(F)[C@@H](O)C[C@]3(C)[C@]2(S[C@H]2CCOC2=O)O1 | 4 |
| CC(C)C[C@H]1NC(=O)[C@H](Cc2ccccc2)NC(=O)CNC(=O)[C@@H](C)NC(=O)[C@H](Cc2ccc(O)cc2)NC(=O)/C=C\c2ccccc2OCOC1=O | 264 |
